Laboratory results as given in patent US9549967B2, “Regulation of sodium channels by PLUNC proteins” (The University of North Carolina at Chapel Hill, priority 2009, dated 2017).

How the values were obtained:
serine proteases = assay: Endogenous protease activity (BGAR-MCA cleavage) on mucosal surfaces of human bronchial epithelial cultures; assay type: cell-based
Experimental: (§1) For cell-free assays, reactions were carried out in 50 μl Ringer in a 96 well plate format with 100 μM BGAR-MCA. To measure endogenous protease activity in human bronchial epithelial cultures, 30 μl Ringer with 100 μM BGAR-MCA were placed directly onto the mucosal surfaces of human bronchial epithelial cultures grown on 12 mm T-clear inserts and the cultures were assayed in 12 well plates.

trypsin = assay: Cell-free fluorogenic assay of BGAR-MCA cleavage by trypsin; assay type: biochemical; conditions: 2 U/ml aprotinin
Experimental: as §1

ENaC [1] = molecular target: T1, ENaC (Homo sapiens, UniProt P37088+P51168+P51170); assay: Transepithelial voltage under thin film conditions in human bronchial epithelial cultures (microelectrode); assay type: cell-based
T1 construct: endogenous in cells; host or cells: primary human bronchial epithelial cultures
T1 sequence (P37088 1-669): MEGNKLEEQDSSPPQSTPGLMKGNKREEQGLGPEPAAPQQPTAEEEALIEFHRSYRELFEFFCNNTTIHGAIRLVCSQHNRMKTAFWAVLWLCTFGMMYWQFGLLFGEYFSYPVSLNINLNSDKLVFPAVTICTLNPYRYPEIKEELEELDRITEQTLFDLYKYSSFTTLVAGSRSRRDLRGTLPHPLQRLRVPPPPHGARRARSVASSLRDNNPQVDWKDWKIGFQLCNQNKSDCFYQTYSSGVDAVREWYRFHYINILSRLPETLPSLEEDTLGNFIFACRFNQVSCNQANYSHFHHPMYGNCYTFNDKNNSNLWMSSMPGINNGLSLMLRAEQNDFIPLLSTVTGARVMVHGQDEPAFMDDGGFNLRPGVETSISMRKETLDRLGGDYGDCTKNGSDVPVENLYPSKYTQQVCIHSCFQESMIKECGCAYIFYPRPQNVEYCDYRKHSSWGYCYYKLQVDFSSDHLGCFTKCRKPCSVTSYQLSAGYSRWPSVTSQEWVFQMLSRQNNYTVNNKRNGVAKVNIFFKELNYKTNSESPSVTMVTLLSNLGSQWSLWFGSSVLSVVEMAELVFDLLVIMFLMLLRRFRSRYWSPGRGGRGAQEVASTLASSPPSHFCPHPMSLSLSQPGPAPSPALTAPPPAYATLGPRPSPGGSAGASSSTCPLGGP
T1 sequence (P51168 1-640): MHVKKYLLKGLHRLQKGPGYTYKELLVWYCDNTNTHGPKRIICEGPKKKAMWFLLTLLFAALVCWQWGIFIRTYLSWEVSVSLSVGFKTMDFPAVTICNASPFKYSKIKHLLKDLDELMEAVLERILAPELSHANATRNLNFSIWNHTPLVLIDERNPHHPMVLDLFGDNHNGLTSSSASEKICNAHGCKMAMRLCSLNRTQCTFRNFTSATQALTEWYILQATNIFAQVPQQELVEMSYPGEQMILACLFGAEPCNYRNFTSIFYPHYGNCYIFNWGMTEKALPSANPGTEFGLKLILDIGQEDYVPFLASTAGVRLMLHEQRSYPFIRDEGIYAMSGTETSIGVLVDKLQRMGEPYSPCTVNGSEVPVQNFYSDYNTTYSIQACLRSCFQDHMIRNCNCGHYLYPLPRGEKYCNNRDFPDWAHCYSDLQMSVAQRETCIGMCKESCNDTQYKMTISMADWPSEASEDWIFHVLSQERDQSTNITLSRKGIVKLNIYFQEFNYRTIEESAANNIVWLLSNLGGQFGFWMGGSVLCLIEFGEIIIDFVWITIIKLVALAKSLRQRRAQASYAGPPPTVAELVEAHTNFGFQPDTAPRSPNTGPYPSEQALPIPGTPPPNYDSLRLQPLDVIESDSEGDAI
T1 sequence (P51170 1-649): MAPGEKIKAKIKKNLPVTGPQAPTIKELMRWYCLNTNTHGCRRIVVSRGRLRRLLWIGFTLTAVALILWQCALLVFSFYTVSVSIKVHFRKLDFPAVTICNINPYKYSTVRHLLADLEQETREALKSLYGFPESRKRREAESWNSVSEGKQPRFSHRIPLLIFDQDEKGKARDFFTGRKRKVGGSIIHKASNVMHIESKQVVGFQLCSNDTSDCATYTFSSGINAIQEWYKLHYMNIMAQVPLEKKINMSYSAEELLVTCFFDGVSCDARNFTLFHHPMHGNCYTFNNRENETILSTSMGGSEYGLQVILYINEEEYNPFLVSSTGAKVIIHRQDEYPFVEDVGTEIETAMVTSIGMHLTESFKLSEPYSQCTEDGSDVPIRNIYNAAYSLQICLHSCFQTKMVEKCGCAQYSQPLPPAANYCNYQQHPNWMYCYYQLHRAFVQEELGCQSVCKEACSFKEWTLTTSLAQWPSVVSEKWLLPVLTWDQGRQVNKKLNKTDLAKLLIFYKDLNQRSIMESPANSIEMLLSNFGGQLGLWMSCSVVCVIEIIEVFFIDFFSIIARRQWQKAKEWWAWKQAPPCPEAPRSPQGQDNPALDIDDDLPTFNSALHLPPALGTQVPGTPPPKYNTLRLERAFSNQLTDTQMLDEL
Text: (§2) Tissue procurement and cell culture: Cells were harvested by enzymatic digestion from human bronchial tissue as previously described under a protocol approved by the UNC School of Medicine IRB (Tarran et al., J. Gen. Physiol. 127:591 (2006)). Human excess donor lungs and excised recipient lungs were obtained at the time of lung transplantation from portions of main stem or […] bronchi and cells were harvested by enzymatic digestion. All preparations were maintained at an air-liquid interface in a modified bronchial epithelial medium and used 2-5 weeks after seeding on 12 mm T-Clear inserts (Corning Costar) coated with human placental type VI collagen (Sigma). Phosphate buffered saline (PBS) was used for washing human bronchial epithelial culture mucosal surfaces.
(§3) Microelectrode studies. A single-barreled potential difference-sensing electrode was placed in the airway surface liquid by micromanipulator and used in conjunction with a macroelectrode in the serosal solution to measure transepithelial voltage using a voltmeter (World Precision Instruments). […] Transepithelial resistance was routinely measured using the EVOM system (WPI) as previously described (Tarran et al., J. Gen. Physiol. 127:591 (2006)).

ENaC [2] = molecular target: T1, ENaC; assay: Transepithelial electrical resistance of human bronchial epithelial cultures (EVOM); assay type: cell-based; conditions: washed cultures; 50 ng/ml SPLUNC1 for 30 min or amiloride; effects not additive
Text: as §2, §3

αENaC = molecular target: T2, αENaC (Homo sapiens, UniProt P37088); assay: Texas red-SPLUNC1 binding assay on JME cells expressing yfp-αENaC; conditions: polarized JME cells
T2 construct: expressed in transfected cells; host or cells: JME nasal epithelial cells (passaged, no endogenous ENaC), lentiviral vector pQCXIN
T2 sequence (P37088 1-669): T1 sequence (P37088 1-669)
Experimental: JME cells were incubated with varying concentrations of Texas red-labeled SPLUNC1 for 30 min followed by a 5× wash with PBS. After this time images were acquired with a Nikon Ti-S inverted microscope and were quantified to obtain specific and non-specific binding using Image J. Data were then fitted with a Hill Plot to obtain the Kd.
JME nasal epithelial cells express functional ENaCs (Tong et al., Am. J. Physiol. Lung Cell. Mol. Physiol. 287:L928 (2004)). However, this attribute is lost after several passages. Thus, passaged JME cells that no longer expressed ENaC were stably infected with a lentivirus containing yfp-αENaC or an empty vector as a control and the presence or absence of αENaC was confirmed using an antibody that was constructed “in-house” that was directed against αENaC (FIG. 8).
Recombinant SPLUNC1 was labeled with Texas red according to the manufacturer's instructions (Pierce) and was freshly labeled on the day of each binding experiment. […] After this time yfp (514 nm excitation) and Texas red fluorescence (590 nm excitation) were imaged under a 60× water objective on a Nikon Ti-S inverted microscope equipped with an Orca CCD camera (Hamamatsu) switchable filter wheels (Ludl). Background fluorescence was subtracted from all images and the mean thresholded intensity was quantified to obtain specific and non-specific binding using Image J.

Molecule: aprotinin [reference compound]
- spontaneous BGAR-MCA cleavage on mucosal surfaces (serine proteases): inhibited
- inhibition of trypsin activity (trypsin): ~100%
- rate of inhibition of the transepithelial voltage (ENaC [1]; rSPLUNC1 vs aprotinin addition, effects not additive): identical rates

Molecule: N=C(N)NC(=O)c1nc(Cl)c(N)nc1N [amiloride, reference compound]
- increase of the transepithelial electrical resistance (ENaC [2]): ~33%
- reduction of the transepithelial voltage (ENaC [1]; n=12, FIG. 4 legend: 100 mM amiloride): 54%

B1: Texas red-rSPLUNC1: recombinant SPLUNC1 labeled with Texas red (conjugate)
chain: QFGGLPVPLDQTLPLNVNPALPLSPTGLAGSLTNALSNGLLSGGLLGILENLPLLDILKPGGGTSGGLLGGLLGKVTSVIPGLNNIIDIKVTDPQLLELGLVQSPDGHRLYVTIPLGIKLQVNTPLVGASLLRLAVKLDITAEILAVRDKQERIHLVLGDCTHSPGSLQISLLDGLGPLPIQGLLDSLTGILNKVLPELVQGNVCPLVNEVLRGLDITLVHDIVNMLIHGLQFVIKV
modifications: left off: small tags and cut ends
- Kd (αENaC; 30 min incubation, Hill fit): 0.055 µg/mL
- specific (yfp-αENaC) binding vs non-specific (empty vector) binding (αENaC; binding isotherm): significantly greater and saturable
